{"source": "patent US20040138169A1", "about": "“Composition and use of substances for stabilising amino acids containing sulphur” (priority 2001, published 2004)", "key": {"[1]": {"system": "HCY-concentration in whole blood", "assay": "Stabilization of the homocysteine (HCY) concentration in withdrawn whole blood stored in monovettes with stabilizer", "format": "cell-based", "conditions": "room temperature; for HCY-SD (duration of stabilization): whole blood in EDTA- or Na-heparin-monovettes with stabilizer (amount per ml blood); for stabilization of homocysteine (duration): whole blood", "procedure": "(§1) Material Used and Processes\n(§2) The following inhibitors of methyl transferase or S-adenosylhomocysteine hydrolase have been tested\n(§3) The effectiveness of the inhibitors have been tested in combination with the following acids:\n(§4) The compositions of further reagents have been:\n(§5) Mixture A: 5(4)-AMCA (5.2 mg) and DEOA (3.2 mg), dissolved in 500 μl phosphate buffer.\n(§6) Composition of the buffer for mixture A:\n(§7) All other substances have been dissolved in water.\n(§8) Blood Withdrawal and Treatment of Samples\n(§9) Corresponding amounts of stabilizers have been provided in EDTA- or Na-heparin-monovettes for each Example or Comparative Example (see Table 1). The blood withdrawal has been carried out in monovettes with and without stabilizers. For the control value, the monovettes have been centrifuged within 30 minutes after withdrawal."}, "[2]": {"system": "homocysteine level in blood", "conditions": "cited from earlier work"}, "[3]": {"system": "concentration of cysteine (CYS) in whole blood", "assay": "Stabilization of the cysteine (CYS) concentration in withdrawn whole blood stored in monovettes with stabilizer", "format": "cell-based", "conditions": "whole blood in EDTA- or Na-heparin-monovettes with stabilizer (amount per ml blood), room temperature", "procedure": "as §1, §2, §3, §4, §5, §6, §7, §8, §9"}, "[4]": {"system": "concentration of cysteinyl glycine (CYSGLY) in whole blood", "assay": "Stabilization of the cysteinyl glycine (CYSGLY) concentration in withdrawn whole blood stored in monovettes with stabilizer", "format": "cell-based", "procedure": "as §1, §2, §3, §4, §5, §6, §7, §8, §9"}, "[5]": {"system": "concentration of glutathione (GLU) in whole blood", "assay": "Stabilization of the glutathione (GLU) concentration in withdrawn whole blood stored in monovettes with stabilizer", "format": "cell-based", "procedure": "as §1, §2, §3, §4, §5, §6, §7, §8, §9"}, "[6]": {"assay": "Storage stability of the reagent", "format": "physicochemical", "conditions": "can be stored only in cooled state (+4° C.)", "procedure": "A problem which occurs when using 3-deazaadenosine resides in that noticable variations of the measured values occur, lying in the range of up to 2 μmol/l in 60 hours with homocysteine and in the range of up to 60 μmol/l in 60 hours with cysteine. […] A further problem resides in that 3-deazaadenosine is not stable at room temperature and can be stored only in cooled state (+4° C.), which limits also its shipment capabilities. However, a simple handling of the reagents is of great importance in the diagnostic medicine, because for example withdrawn blood must be present in an unmodified form and transportable over an extended period without larger expenditure like, for example, cooling."}, "[7]": {"system": "sulphur-containing amino acids (HCY, CYS, CYSGLY, GLU) in whole blood", "assay": "Stabilization of sulphur-containing amino acids (HCY, CYS, CYSGLY, GLU) together in whole blood samples", "format": "cell-based", "conditions": "substance used alone, samples at room temperature", "procedure": "as §1, §2, §3, §4, §5, §6, §7, §8, §9"}}, "note": "Entries after “also recorded” stand apart in the source; their conditions may differ.", "data": [{"compound": "Nc1nccc2c1ncn2[C@@H]1O[C@H](CO)[C@@H](O)[C@H]1O", "note": "[Cmp.-Ex. 1, 3-deazaadenosin]", "values": [{"measurement": "HCY-SD (duration of stabilization)", "setting": "[1]", "result": 56, "unit": "h"}, {"measurement": "increase of the homocysteine level", "setting": "[2]; 72 hours after the blood withdrawal", "result": "about 10%"}, {"measurement": "time over which the reaction from S-adenosylhomocysteine to homocysteine is effectively inhibited", "setting": "[2]; blood samples", "result": "up to 72 hours"}, {"measurement": "time without increase of the homocysteine level in blood", "setting": "[2]; blood samples", "result": "up to 24 hours"}, {"measurement": "CYS-SD (duration of stabilization)", "setting": "[3]", "result": 56, "unit": "h"}, {"measurement": "inhibition of the formation of cysteinyl glycine (in words)", "setting": "[4]", "result": "does not inhibit"}, {"measurement": "inhibition of the formation of glutathione (in words)", "setting": "[5]", "result": "does not inhibit"}, {"measurement": "stability of the reagent at room temperature (in words)", "setting": "[6]", "result": "not stable"}]}, {"compound": "NC(=O)c1nc[nH]c1N", "note": "[5(4)-aminoimidazol-4(5)-carboxamid, 5(4)-aminoimidazol-4(5)-carboxamide]", "values": [{"measurement": "stabilization of the sulphur-containing amino acids (in words)", "setting": "[7]", "result": "no significant stabilization"}]}, {"compound": "Nc1nccc2c1ncn2[C@@H]1C=C(CO)[C@@H](O)[C@H]1O", "note": "[Ex. 14, 3-deazaneplanocin A]", "values": [{"measurement": "HCY-SD (duration of stabilization)", "setting": "[1]", "result": 143, "unit": "h"}, {"measurement": "stabilization of homocysteine (duration)", "setting": "[1]", "result": "at least 143 hours"}, {"measurement": "stabilization of homocysteine (duration)", "setting": "[1]; listed as 3DA-NeplA", "result": 143, "unit": "h"}]}, {"compound": "O=C1O[C@H]([C@@H](O)CO)C(O)=C1O", "note": "[Cmp.-Ex. 2, ascorbic acid]", "values": [{"measurement": "HCY-SD (duration of stabilization)", "setting": "[1]", "result": 73, "unit": "h"}, {"measurement": "CYS-SD (duration of stabilization)", "setting": "[3]", "result": 73, "unit": "h"}, {"measurement": "CYSGLY-SD (duration of stabilization)", "setting": "[4]; whole blood in EDTA- or Na-heparin-monovettes with stabilizer (amount per ml blood), room temperature", "result": 73, "unit": "h"}]}, {"compound": "Nc1ncnc2c1ncn2[C@@H]1C=C(CO)[C@@H](O)[C@H]1O", "note": "[Ex. 13, neplanocin A]", "values": [{"measurement": "HCY-SD (duration of stabilization)", "setting": "[1]", "result": 70, "unit": "h"}]}, {"compound": "[F-].[Na+]", "note": "[NaF]", "values": [{"measurement": "change of the homocysteine level in blood samples (in words)", "setting": "[2]; in comparison with the initial value at the time of withdrawing the blood", "result": "no increase; also recorded: decrease"}]}, {"compound": "O=C(O)CN(CCN(CC(=O)O)CC(=O)O)CC(=O)O", "note": "[Na-EDTA, ethylenediamine tetraacetic acid]", "values": [{"measurement": "stabilization of the sulphur-containing amino acids (in words)", "setting": "[7]", "result": "no stabilization"}]}, {"compound": "O=C(O)CC(O)(CC(=O)O)C(=O)O", "note": "[citric acid]", "values": [{"measurement": "stabilization of the sulphur-containing amino acids (in words)", "setting": "[7]", "result": "no stabilization"}]}, {"compound": "Nc1ncnc2c1ncn2[C@H]1C[C@H](O)[C@@H](CO)O1", "note": "[2′-deoxyadenosin]", "values": [{"measurement": "stabilization of the sulphur-containing amino acids (in words)", "setting": "[7]", "result": "no significant stabilization"}]}, {"compound": "O=C(O)/C=C/C(=O)O", "note": "[Cmp.-Ex. 3, fumaric acid]", "values": [{"measurement": "HCY-SD (duration of stabilization)", "setting": "[1]", "result": 47, "unit": "h"}, {"measurement": "CYS-SD (duration of stabilization)", "setting": "[3]", "result": 47, "unit": "h"}]}]}
